Experimental findings from patent publication EP0390515A1, “Novel adenine derivatives and their use as agents for increasing crop yields” (MITSUBISHI GAS CHEMICAL COMPANY, INC., priority 1989, dated 1990) are described below.

Values after ≈ are worked out from the molar mass of the structure shown. Where two headings read alike, the source gives them in different places.

For series [1], the system named is Rice seeds (var.: Nankin No. 11) leaf section. The series can be described thus: Assay of cytokinin activity by measurement of chlorophyll content (senescence retardation of rice leaf sections). Format: cell-based, Rice (var.: Nankin No. 11). The following applies: dark, 30°C, 3 days. Here is the method:
Rice seeds (var.: Nankin No. 11) were sown in soil mixed with fertilizer in a seed box and raised for about one month in a greenhouse (25°C in the daytime and 15°C in the night).
A leaf section 1 cm long was cut off from the center of the fourth leaf of the seedlings at the sixth leaf stage. Five leaf sections as one group which had been cut off were floated on the surface of an aqueous solution (2 ml) of the candidate compound or benzyl adenine at a given concentration contained in a glass tubular bottle of 32 mm in inner diameter. This was left to stand in the dark at 30°C for 3 days. The leaf sections were taken out and put in a test tube containing 10 ml of 80% ethanol and the glass tube was immersed in a water bath of 80°C for 20 minutes to extract chlorophyll. After cooling, 80% ethanol was added to make up to 10 ml and absorbance at 665 nm was measured. For the untreated group, water was used in place of the candidate solution in all examples.
Senescence retardation was determined according to the degree of chlorophyll retention, that is, calculated using the following formula (in all examples). [formula] • (A) : Absorbance of treated group after 3 days • (B) : Absorbance of untreated group after 3 days • (C) : Absorbance of leaves before treatment.

The next series concerns leaf of wheat. The series can be described thus: Absorption from the surface of the leaf of wheat and translocation (length of green portion). Format: cell-based, wheat [var.: Yukichabo (Triticum astivum)]. To be noted: for The length of the green portion (mm) (average in 10 leaves): 10 µl in 0.2% Tween 80 on centre of wheat leaf section, 25°C, 5 days, dark. Here is the method: In the same manner as in the above Example 8 test (1), wheat seedlings were grown to a height of 12 - 13 cm and a portion was cut off from tle region 4 cm from the tip of the first true leaf and this leaf section was used for this test.
The bottom of a Petri dish 9 cm in diameter was covered with a sheet of circular filter paper which was wetted with 2.5 ml of distilled water. A slide glass was put thereon and ten of the leaf sections were arranged on this slide glass with the upper surface of the leaf being uppermost. On the center of the leaf sections was put 10 µl of the solution prepared by dissolving the candidate compound or benzyladenine in a 0.2% aqueous solution of Tween 80 at a given concentration. The Petri dish was covered and left at 25°C for 5 days in the dark. In the part where the candidate solution was absorbed and translocated around the position on which the solution was put, the length of the portion where chlorophyll was retained, namely, the length of the green portion was measured. […]

A short description of another series: Water solubility. In kind it is physicochemical. How it is done: Water solubility of adenine derivatives of the present invention and representative known cytokinin substances was measured and the results are shown in Table 7. […]
The subject of series [2] is glycine (soybean) hypocotyl section. Kind of series: Assay for cytokinin activity according to glycine (soybean) hypocotyl section growth test (callus weight). To be noted: Miller's medium with 2,4-D, dark, 30°C, about one month. In kind it is cell-based, Soybean (var.: Enrei). Here is the method:
Soybean seeds (var.: Enrei) were disinfected with antiformin containing 0.7% effective chlorine for 4 minutes and washed thrice with sterilized water.
Agar (15 ml, 1.6%) was put in a test tube 2.5 cm in diameter. A groove was cut by forceps on the surface of the agar and two soybean seeds treated as above were placed in this groove and kept in the dark at 30°C for 5 days.
In a glass tubular bottle 26 mm in inner diameter was put Miller's medium, to which a given concentration of the candidate compound, benzyladenine or zeatin and […] of 2,4-D were added. The central portion of hypocotyl budding out from the above seeds was cut off to give a section 1 mm thick. Four of the sections as one group were transplanted to the Miller's medium. This was placed in the dark at 30°C for about one month and then the weight of callus formed was measured. For untreated group, the Miller's medium containing 9 mg/l of 2,4-D was used.

Series [3] concerns pig weed (Amaranthus caudatus). The series can be described thus: Assay of cytokinin activity to promote synthesis of betacyanin by pig weed cotyledon sections. Format: cell-based. The following applies: 27°C, 20 hours, dark. How it is done:
Two sheets of filter paper were put double in a plastic container (19 x 28 cm) and were wetted with 60 ml of distilled water. Seeds of pig weed were sown on the filter papers and were germinated by keeping them in the dark at 27°C for 3 days. Seedlings of uniform size were chosen and were cut at the upper part of the hypocotyl and the seed coats were removed. This cotyledon with hypocotyl of 3-4 mm in length was used for assay.
Two sheets of filter paper were put double in a glass tubular bottle 32 mm in inner diameter and 1 ml of 0.0065M potassium phosphate buffer solution (pH: 6.3) containing a given concentration of the candidate compound, benzyladenine or zeatin and 0.5 g/l of tyrosine was added therein and ten of the above cotyledon sections were arranged therein and kept at 27°C for 20 hours in the dark. These ten cotyledon sections were put in a test tube containing 3 ml of distilled water and betacyanin was extracted by repeating thrice freezing and thawing. Absorbance of the solution was measured and the amount of the dye was calculated by the difference between the absorbance at 542 nm and at 620 nm. For the untreated group, 0.0065M potassium phosphate buffer solution (pH: 6.3) containing 0.5 g/l of tyrosine was used.

The test system of a further series is wheat shoots. The series can be described thus: Absorption from the base of wheat shoots and translocation (senescence retardation of leaf sections). Format: cell-based, wheat [var.: Yukichabo (Triticum astivum)]. To be noted: for The senescence retardation (%): 10 mg/l taken up from shoot base for 18 hours. How it is done:
Wheat seedlings were grown to a height of 14-15 cm in the same manner as in the above Example 8 test (1) and the shoot was cut off at the base. These sections were used for the test.
A solution (10 ml) containing 10 mg/l of the candidate compound or benzyladenine was poured into a test tube 2.5 cm in diameter and five of the wheat shoots as one group were inserted in one test tube containing the candidate solution and left at 25°C for 18 hours under irradiation with light of 1500 Lx. Thereafter, each of the shoots was cut at 5-6 cm, 8-9 cm and 11-12 cm from the above cut end and five of the respective sections as one group were floated on the surface of distilled water (2 ml) in a glass tubular bottle 32 mm in inner diameter with the upper surface of the leaves being uppermost. These were left at 25°C for 3 days in the dark and thereafter, the leaf sections were put in a test tube containing 10 ml of 80% ethanol. This test tube was immersed in a water bath at 80°C for 20 minutes to extract chlorophyll. After cooling, 80% ethanol was added to make up to 10 ml and absorbance of the solution at 665 nm was measured. In the same manner as in the above Example 8 test (1), senescence retardation was obtained.

Where [4] appears, read: region of leaf section 5-6 (cm) from cut end.
The mark [5] stands for this setting: region of leaf section 8-9 (cm) from cut end.
Where [6] appears, read: region of leaf section 11-12 cm from cut end.

On to `c1ccc(CNc2ncnc3nc[nH]c23)cc1` [Benzyladenine, 6-benzylaminopurine, reference compound], for which the “The senescence retardation (%)” value in series [1] (0.001 mg/l) is 17%; in series [1] (0.01 mg/l) it was 64%; in series [1] (0.1 mg/l) it was 93%; in series [1] (1.0 mg/l) it was 93%; in the series on wheat shoots (setting [4]), 17%; with wheat shoots (setting [5]), 21%. In addition, in the series on wheat shoots (setting [6]), the “The senescence retardation (%)” value stood at 14%. In addition, the “The length of the green portion (mm) (average in 10 leaves)” value in the series on leaf of wheat (0.1 mg/l) is given as 9.6 mm; with leaf of wheat (1.0 mg/l), 14.2 mm; with leaf of wheat (10 mg/l), 16.9 mm. In addition, in the series “Water solubility”, the solubility amounted to 0.03 mg/mL (≈ 0.133 mM). In addition, the “The weight of soybean callus formed” value in series [2] (0.001 mg/l) turned out to be 76 mg; in series [2] (0.01 mg/l) it was 836 mg; in series [2] (0.1 mg/l), 674 mg. In addition, the “The amount of betacyanin produced (difference between absorbance at 542 nm and 620 nm)” value in series [3] (0.001 mg/l) is given as 0.038; in series [3] (0.01 mg/l), 0.076; in series [3] (0.1 mg/l) it was 0.192; in series [3] (1.0 mg/l), 0.260.
On to `CON(C)CCNc1ncnc2nc[nH]c12` [MAED, N⁶-[2-(N-methoxy-N-methylamino)ethyl]adenine], for which the “The senescence retardation (%)” value in series [1] (0.001 mg/l) is 14%; in series [1] (0.01 mg/l) it was 60%; in series [1] (0.1 mg/l), 100%; in series [1] (1.0 mg/l), 95%; with wheat shoots (setting [4]), 37%; in the series with wheat shoots (setting [5]), 34%. The “The senescence retardation (%)” value with wheat shoots (setting [6]) is recorded as 20%. The “The length of the green portion (mm) (average in 10 leaves)” value in the series on leaf of wheat (0.1 mg/l) was 9.9 mm; with leaf of wheat (1.0 mg/l), 19.8 mm; in the series with leaf of wheat (10 mg/l) it was 28.8 mm. The “green portion compared with benzyladenine (absorbability and translocation)” value in the series with leaf of wheat (at the same concentration, result in words) is reported as “expanded the green portion in more widely than benzyladenine”. Further, in “Water solubility” (20°C, read-out: Solubility (g/100 g H₂O) (20°C)), the solubility is 99 mg/mL (≈ 445 mM). The “The weight of soybean callus formed” value in series [2] (0.001 mg/l) worked out at 97 mg; in series [2] (0.01 mg/l), 182 mg; in series [2] (0.1 mg/l), 654 mg; in series [2] (1.0 mg/l) it was 823 mg; in series [2] (10 mg/l), 705 mg. Also, the “The amount of betacyanin produced (difference between absorbance at 542 nm and 620 nm)” value in series [3] (0.001 mg/l) came out at 0.040; in series [3] (0.01 mg/l) it was 0.058; in series [3] (0.1 mg/l) it was 0.121; in series [3] (1.0 mg/l) it was 0.214. Moreover, the “senescence retardation compared with benzyladenine (absorbability and translocation)” value with wheat shoots (all regions of the first true leaf of wheat, result in words) is recorded as “more pronounced effect of senescence retardation than benzyladenine in all regions”.
